How the values were obtained:
leukemia cell lines = test: MTS assay of inhibition of proliferation; type: cell-based
Experimental: The 100 compounds selected from the initial in silico screen were assayed for inhibition of proliferation in two leukemia cell lines, SEM and REH, by MTS ((3-(4,5-dimethylthiazol-2-yl)-5-(3-carboxymethoxyphenyl)-2-(4-sulfophenyl)-2H-tetrazolium)) assay. The cells for the MTS assay were spun down and re-suspended. The cell suspension was then divided and the compound to be tested added in desired concentrations and subsequently plated. Following an incubation period, MTS reagent (Promega CellTiter 96® Aqueous Non-Radioactive Cell Proliferation Assay) was added and allowed to incubate. The absorbance is subsequently measured at 490 nm using a plate reader.
The five lead compounds, i.e. Compounds 1-5, were further analyzed for their effect on cell proliferation at various doses on different leukemia cells. First, each the five compounds was screened in nine leukemia cell lines: REH, SEM, MV411, RS411, Jurkat, Raji, Nomo-1, Naim6, and ML2 at a concentration of 20 μM. Four of the lead compounds, Compounds 2, 3, 4 and 5 were further tested in SEM and MV411 cells at a range of concentrations for inhibition of proliferation. In order to quantitate the percentage inhibition of cell proliferation, MTS analysis was completed as described in Example 2 above.

Rac1-GTPase = molecular target: T1, Rac1-GTPase (Homo sapiens, UniProt P63000); test: pull down assay for RAC-GTP with Western blot; type: cell-based; conditions: exposure of the cells for 5 and 60 minutes, FIG. 9b
T1 construct: The assay initially required treatment of cells followed by pull down and analysis with Western blot; endogenous in cells; host or cells: Leukemia cells
Experimental: To determine which of these compounds should be further pursued, a biochemical pull down assay was performed to confirm specific inhibition of Rac activation indicated by disruption of the interaction between Rac and […]. The assay initially required treatment of cells followed by pull down and analysis with Western blot. The cells were first starved in serum free media for 2 hours. They were then re-suspended in serum-containing medium and inhibitors added at desired concentration. Following incubation for the desired length of time, the cells were pelleted and lysed with Magnesium Lysis Buffer (Millipore Mg^2+lysis/wash buffer). The Rac protein and any bound proteins were then collected with Pak Beads (Millipore Rac/cdc42 Assay Reagent (PAK-1 PBD, agarose). Bound protein was subsequently removed with lysis buffer and subject to Western Blot analysis.
Additional analysis of Compound 5 was performed to assess its effects on apoptosis, cell death and RAC-GTPase interaction. FIG. 9a indicates the effect of OSSK—373747 on the apoptotic pathway in SEM cells. Apoptotic cells and dead cells following incubation of SEM cells with 20 and 80 μM of Compound 5 were analyzed using Annexin V staining.

[1] = tested on: normal bone marrow hematopoietic progenitor cells; test: clonogenic assay in methylcellulose (colony formation) for toxicity; type: cell-based, mouse; conditions: compared to the other compounds
Experimental: Four of the lead compounds (Compounds 2, 3, 4, and 5) were screened for toxicity in normal bone marrow hematopoietic progenitor cells. Average colonies formed from normal BL-6 mouse bone marrow were counted following exposure of the four lead compounds individually at concentrations of 5 μM, 20 μM or 80 μM in methylcellulose. A clonogenic assay in methylcellulose was performed to assess colony formation. MethoCult base (StemCell Tech #03134) was mixed with the following reagents: fetal bovine serum, bovine serum albumin, IL-3, mSCF, EPO, beta-mercaptoethanol, penicillin, streptomycin, L-glutamine, and IMDM, and added to normal bone marrow cells. The cells in suspension are then plated and resulting colonies counted after 7 days.

[2] = in vivo tolerability in NSG mice xenografted with MV411 cells
Experimental: In vivo tolerability of Compound 7 was evaluated in NSG mice xenografted with MV411 cells stably expressing luciferase via constitutive promoter. Compound 7 was prepared in a solution of 10% NMP, 5% CremaphorEL, 30% PEG200, and 55% D5W and administered PO at a dose of 50, 100, 250, or 500 mg/kg once each day for a period of 7 days. Five mice were utilized for each test group.
Body weight was recorded 3 times/week upon dosing. On treatment day 6, the mice were imaged via bioluminescence imaging to ensure the presence of the xenografted MV411 leukemia cells. Following the final dose, dose 7, at least 100 μL of blood was drawn via submandibular bleed for plasma collection. Eight hours following the last dose, cardiac puncture blood draw was performed for plasma collection.

With `O=C(CSc1nc2ccccc2n1Cc1ccccc1)N/N=C/c1ccccc1O` [Compound 5] the “efficacy (inhibition of leukemia cell proliferation)” value (leukemia cell lines; summary of prior experiments, compared to the other compounds) was “strong efficacy”, the “GTPase and Rac interaction” value (Rac1-GTPase) was “decrease in GTPase and Rac interaction” and the “toxicity to the normal cells (average colonies from normal mouse bone marrow)” value ([1]; 20 μM or 80 μM, FIG. 8) was “least toxicity”. For the same molecule, the “toxicity to normal bone marrow cells” value ([1]; summary statement) was “low toxicity”.

In the case of `Cc1nn(Cc2ccc(F)cc2)c2sc(C(=O)Nc3ccc4c(c3)OCO4)cc12` [Compound 7], the in vivo tolerability ([2]; PO 50, 100, 250 or 500 mg/kg once each day for 7 days) is reported as “tolerable” and the “change in weight of animals” value ([2]; PO 50, 100, 250 or 500 mg/kg over a 7 day period, FIG. 19b) is reported as “no progressive weight loss”.

In the case of `NNC(=O)CSc1nc2ccccc2n1Cc1ccccc1` [Compound 12], the “inhibitory activity on leukemia cell lines” value (leukemia cell lines; in vitro) is reported as “retains inhibitory activity”.

Reference: US20150265608A1, “Compounds for Treating Rac-GTPase Mediated Disorder” (Children's Medical Center Corporation, priority 2012, published 2015)
